In the test the target is T1, Human IP6K1 (Homo sapiens, UniProt Q92551).
T1 construct: GST (N, cleaved yes); made in house; host or cells: C43 E. coli, pGEX-6P-2
In words: IP6K1 high-throughput screen of the Sigma LOPAC (ADP-Glo Max, single point).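 Note: final compound concentration 10µM in 5% DMSO.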 In kind it is biochemical. A general note: In ADP-Glo the light output rises with the ADP produced.

Setting [1] is: LOPAC single-point screen, ADP-Glo Max luminescence raw signal per well.
Where [2] appears, read: LOPAC single-point screen, Z-score relative to plate average and StDev.
Setting [3] is: Sigma LOPAC single-point screen, ADP-Glo Max raw signal per well.
The mark [4] stands for this setting: Sigma LOPAC single-point screen, Z-score from plate average and StDev.
The mark [5] stands for this setting: LOPAC single-point screen, ADP-Glo Max raw signal per well.
The mark [6] stands for this setting: LOPAC single-point screen, Z-score from raw signal with plate average and StDev.
The mark [7] stands for this setting: LOPAC single-point screen, Z-score against plate average and StDev.
[8] abbreviates: LOPAC single-point screen, Z-score from plate average and StDev.

Counter-ions that a name gives are not always drawn. Like-named read-outs stand apart in the source and are kept apart here.

T1 sequence (Q92551 whole entry): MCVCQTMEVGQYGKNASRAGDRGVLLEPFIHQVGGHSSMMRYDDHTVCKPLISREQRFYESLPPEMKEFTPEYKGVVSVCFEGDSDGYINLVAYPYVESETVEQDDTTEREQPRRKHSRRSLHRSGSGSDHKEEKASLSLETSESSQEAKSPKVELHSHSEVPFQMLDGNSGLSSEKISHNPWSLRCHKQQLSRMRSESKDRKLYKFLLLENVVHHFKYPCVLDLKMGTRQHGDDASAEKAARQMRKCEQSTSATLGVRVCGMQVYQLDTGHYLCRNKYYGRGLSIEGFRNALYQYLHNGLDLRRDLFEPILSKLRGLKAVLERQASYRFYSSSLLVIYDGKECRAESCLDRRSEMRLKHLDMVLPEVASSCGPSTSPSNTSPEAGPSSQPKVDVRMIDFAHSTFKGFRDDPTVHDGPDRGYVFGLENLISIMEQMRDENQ

On to `Cl.Cl.NCCC(=O)NCCc1c[nH]cn1` [Carcinine dihydrochloride], for which, under setting [1], the “Raw Signal” value stood at 35878. The Z-score under setting [2] is recorded as -3.881.

`CCCC(C)(COC(N)=O)COC(=O)NC(C)C` (centres unmarked) [Carisoprodol]: the “Raw Signal” value under setting [3] was 61112. Moreover, the Z-score under setting [4] came out at 0.5634.

Consider `O=NN(CCCl)C(=O)NCCCl` [Carmustine], for which, under setting [1], the “Raw Signal” value is recorded as 54247. For the same molecule, the Z-score under setting [2] is listed as -0.6457.

Consider `N[C@@H](C(=O)N[C@@H]1C(=O)N2C(C(=O)O)=C(Cl)CS[C@H]12)c1ccccc1` [Cefaclor], for which, under setting [5], the “Raw Signal” value worked out at 57158. Under setting [6], this molecule had a Z-score of -0.133.

For `Cc1nnc(SCC2=C(C(=O)O)N3C(=O)[C@@H](NC(=O)Cn4cnnn4)[C@H]3SC2)s1` [Cefazolin sodium], under setting [5], the “Raw Signal” value is 59148. This molecule yielded a Z-score under setting [7] of 0.2175.

`CO[C@@]1(NC(=O)CSCC#N)C(=O)N2C(C(=O)O)=C(CSc3nnnn3C)CS[C@@H]21` [Cefmetazole sodium]: the “Raw Signal” value under setting [1] was 53279. This molecule came in with a Z-score under setting [2] of -0.8162.

As for `CO/N=C(\C(=O)N[C@@H]1C(=O)N2C(C(=O)O)=C(COC(C)=O)CS[C@H]12)c1csc(N)n1` [Cefotaxime sodium], under setting [1], the “Raw Signal” value worked out at 53540. Moreover, the Z-score under setting [2] is reported as -0.7702.

Take `NC(=O)c1cc[n+](CC2=C(C(=O)[O-])N3C(=O)[C@@H](NC(=O)C(c4ccccc4)S(=O)(=O)[O-])[C@H]3SC2)cc1.O.[Na+]` (some centres unmarked) [Cefsulodin sodium salt hydrate]: the “Raw Signal” value under setting [5] turned out to be 56779. Under setting [6], this molecule registered a Z-score of -0.1997.

With `CO/N=C(\C(=O)N[C@@H]1C(=O)N2C(C(=O)O)=C(CSc3nc(=O)c(=O)[nH]n3C)CS[C@H]12)c1csc(N)n1` [Ceftriaxone sodium], the “Raw Signal” value under setting [5] was 55787. The molecule also displayed a Z-score under setting [6] of -0.3745.

As to `CN(C)CCOC(=O)COc1ccc(Cl)cc1` [Centrophenoxine hydrochloride], the “Raw Signal” value under setting [1] was 69002. Under setting [8], the Z-score was 1.953.

With `CC1=C(C(=O)O)N2C(=O)[C@@H](NC(=O)[C@H](N)c3ccccc3)[C@H]2SC1.O` [Cephalexin hydrate], under setting [3], the “Raw Signal” value was determined as 61524. Moreover, under setting [4], the Z-score turned out to be 0.636.

In the case of `CC(=O)OCC1=C(C(=O)[O-])N2C(=O)[C@@H](NC(=O)CCC[C@@H](N)C(=O)[O-])[C@H]2SC1.[Zn+2]` [Cephalosporin C zinc salt], under setting [5], the “Raw Signal” value amounted to 57645. Besides, under setting [7], the Z-score is on record as -0.04722.

With `CC(=O)OCC1=C(C(=O)O)N2C(=O)[C@@H](NC(=O)Cc3cccs3)[C@H]2SC1` [Cephalothin sodium], the “Raw Signal” value under setting [5] is reported as 58709. Also, under setting [7], the Z-score is on record as 0.1402.

For the molecule `CC(=O)OCC1=C(C(=O)O)N2C(=O)[C@@H](NC(=O)CSc3ccncc3)[C@H]2SC1` [Cephapirin sodium], the “Raw Signal” value under setting [1] stood at 53491. This molecule had a Z-score under setting [2] of -0.7789.

`CC1=C(C(=O)O)N2C(=O)[C@@H](NC(=O)[C@H](N)C3=CCC=CC3)[C@H]2SC1` [Cephradine]: the “Raw Signal” value under setting [5] is listed as 56353. This molecule registered a Z-score under setting [6] of -0.2748.

Regarding `COc1ccc2c(c[n+](C)c3c4cc5c(cc4ccc23)OCO5)c1OC` [Chelerythrine chloride], the “Raw Signal” value under setting [1] turned out to be 66575. The Z-score under setting [8] worked out at 1.5256.

Turning to `O=C(O)c1cc(O)cc(C(=O)O)n1` [Chelidamic acid], the “Raw Signal” value under setting [5] was determined as 56074. Under setting [6], this molecule registered a Z-score of -0.3239.

For `O=C(O)CCCc1ccc(N(CCCl)CCCl)cc1` [Chlorambucil], the “Raw Signal” value under setting [5] was 57590. Moreover, under setting [7], the Z-score is listed as -0.05691.

Regarding `CN1C(=O)CCS(=O)(=O)C1c1ccc(Cl)cc1` (centres unmarked) [Chlormezanone], under setting [1], the “Raw Signal” value came to 52438. The Z-score under setting [2] is on record as -0.5542.

As for `CNC(=O)[C@H]1O[C@@H](n2cnc3c(NCc4cccc(I)c4)nc(Cl)nc32)[C@H](O)[C@@H]1O` [Chloro-IB-MECA], the “Raw Signal” value under setting [1] was 50053. The Z-score under setting [2] is reported as -1.039.

As for `CCN(CC)CCCC(C)Nc1ccnc2cc(Cl)ccc12` (centres unmarked) [Chloroquine diphosphate], the “Raw Signal” value came out at 55954 and the Z-score is given as -0.3451.

Turning to `NS(=O)(=O)c1cc2c(cc1Cl)N=CNS2(=O)=O` [Chlorothiazide], the “Raw Signal” value under setting [1] came out at 49210. Besides, under setting [2], the Z-score is given as -1.533.

`CN(C)CCCN1c2ccccc2Sc2ccc(Cl)cc21` [Chlorpromazine hydrochloride]: the “Raw Signal” value under setting [3] is given as 63674. Under setting [4], the Z-score was 1.015.

Take `CCCNC(=O)NS(=O)(=O)c1ccc(Cl)cc1` [Chlorpropamide]: under setting [5], the “Raw Signal” value is given as 58549. Under setting [7], this molecule displayed a Z-score of 0.112.

On to `CN(C)CC/C=C1/c2ccccc2Sc2ccc(Cl)cc21` [Chlorprothixene hydrochloride], for which the “Raw Signal” value under setting [3] is given as 61517. The Z-score under setting [4] stood at 0.6347.

For the molecule `C[N+](C)(C)CCO.[Br-]` [Choline bromide], the “Raw Signal” value was 58990 and the Z-score is 0.1897.

Take `CN(C(=O)CCCOc1ccc2[nH]c(=O)ccc2c1)C1CCCCC1` [Cilostamide]: the “Raw Signal” value under setting [1] worked out at 54164. Under setting [2], the Z-score is given as -0.6603.

For the molecule `O=C1CCc2cc(OCCCCc3nnnn3C3CCCCC3)ccc2N1` [Cilostazol], the “Raw Signal” value under setting [5] was 58165. The Z-score under setting [7] came to 0.04437.

On to `CN/C(=N/CCSCc1nc[nH]c1C)NC#N` [Cimetidine], for which, under setting [3], the “Raw Signal” value is on record as 62612. Moreover, the Z-score under setting [4] is on record as 0.8276.

As for `CCn1nc(C(=O)O)c(=O)c2cc3c(cc21)OCO3` [Cinoxacin], the “Raw Signal” value under setting [5] is 58068. Under setting [7], this molecule gave a Z-score of 0.02728.

For the molecule `CC(C)(Oc1ccc(C2CC2(Cl)Cl)cc1)C(=O)O` (centres unmarked) [Ciprofibrate], the “Raw Signal” value under setting [3] amounted to 63809. The Z-score under setting [4] is reported as 1.038.

`c1ccc(C2CC2)c(OCC2=NCCN2)c1` [Cirazoline hydrochloride]: the “Raw Signal” value under setting [1] came out at 48676. In addition, the Z-score under setting [2] is -1.318.

For the molecule `N.N.[Cl][Pt][Cl]` [Cisplatin], the “Raw Signal” value under setting [1] was 49642. For the same molecule, the Z-score under setting [2] was -0.7984.

In the case of `CN(C)CCCC1(c2ccc(F)cc2)OCc2cc(C#N)ccc21` (centres unmarked) [Citalopram hydrobromide], under setting [5], the “Raw Signal” value amounted to 58251. Further, the Z-score under setting [7] was 0.05951.

Turning to `C[N+](C)(C)CCOP(=O)([O-])OP(=O)([O-])OC[C@H]1O[C@@H](n2ccc(N)nc2=O)[C@H](O)[C@@H]1O.[Na+]` [Citicoline sodium], the “Raw Signal” value under setting [3] stood at 63989. Further, the Z-score under setting [4] worked out at 1.07.

Take `Cl.Clc1ccc(Cn2c(CN3CCCC3)nc3ccccc32)cc1` [Clemizole hydrochloride]: the “Raw Signal” value under setting [5] was found to be 56495. For the same molecule, under setting [6], the Z-score is -0.2498.

Consider `O=P(O)(O)C(Cl)(Cl)P(=O)(O)O` [Clodronic acid], for which the “Raw Signal” value under setting [5] was 56368. Besides, the Z-score under setting [7] was 0.2439.

For the molecule `CCOC(=O)C(C)(C)Oc1ccc(Cl)cc1` [Clofibrate], the “Raw Signal” value under setting [5] turned out to be 58171. The Z-score under setting [7] turned out to be 0.04542.

For the molecule `CN(C)CCCN1c2ccccc2CCc2ccc(Cl)cc21` [Clomipramine hydrochloride], the “Raw Signal” value under setting [3] is 60543. Further, the Z-score under setting [4] is listed as 0.4632.

For `Clc1cccc(Cl)c1N=C1NCCN1` [Clonidine hydrochloride], the “Raw Signal” value under setting [1] is given as 54432. Moreover, the Z-score under setting [2] is -0.6131.

Consider `C#CCN(C)CCCOc1ccc(Cl)cc1Cl` [Clorgyline hydrochloride], for which, under setting [1], the “Raw Signal” value was found to be 50699. Under setting [2], this molecule displayed a Z-score of -0.6208.

Take `Clc1ccccc1C(c1ccccc1)(c1ccccc1)n1ccnc1` [Clotrimazole]: under setting [3], the “Raw Signal” value was found to be 61041. Under setting [4], this molecule returned a Z-score of 0.5509.

On to `CN1CCN(C2=Nc3cc(Cl)ccc3Nc3ccccc32)CC1` [Clozapine], for which the “Raw Signal” value under setting [1] came out at 54825. The Z-score under setting [2] was -0.5439.

Turning to `COc1cc2c(c(OC)c1OC)-c1ccc(OC)c(=O)cc1[C@@H](NC(C)=O)CC2` [Colchicine], the “Raw Signal” value under setting [5] came out at 58343. Under setting [7], this molecule displayed a Z-score of 0.07572.

For `C[C@]12CCC(=O)C=C1CC[C@@H]1[C@@H]2CC[C@@]2(C)[C@H]1CC[C@]2(O)C(=O)CO` [Cortexolone], under setting [5], the “Raw Signal” value is 55575. The same molecule yielded a Z-score under setting [7] of -0.08719.

Take `C[C@]12C[C@H](O)[C@H]3[C@@H](CCC4=CC(=O)CC[C@@]43C)[C@@H]1CC[C@@H]2C(=O)CO` [Corticosterone]: the “Raw Signal” value under setting [5] came to 55741. This molecule came in with a Z-score under setting [6] of -0.3826.

Turning to `CC(=O)OCC(=O)[C@@]1(O)CC[C@H]2[C@@H]3CCC4=CC(=O)CC[C@]4(C)[C@H]3C(=O)C[C@@]21C` [Cortisone 21-acetate], the “Raw Signal” value under setting [5] was 59780. Further, under setting [7], the Z-score is 0.3288.

`C[C@]12CCC(=O)C=C1CC[C@@H]1[C@@H]2C(=O)C[C@@]2(C)[C@H]1CC[C@]2(O)C(=O)CO` [Cortisone]: under setting [3], the “Raw Signal” value turned out to be 65066. Further, the Z-score under setting [4] turned out to be 1.26.

On to `CN(C)CCC=C1c2ccccc2C=Cc2ccccc21` [Cyclobenzaprine hydrochloride], for which the “Raw Signal” value under setting [3] is on record as 63136. The molecule further had a Z-score under setting [4] of 0.9199.

Turning to `O=P1(N(CCCl)CCCl)NCCCO1` (centres unmarked) [Cyclophosphamide monohydrate], the “Raw Signal” value came to 58935 and the Z-score amounted to 0.18.

For `NS(=O)(=O)c1cc2c(cc1Cl)NC(C1CC3C=CC1C3)NS2(=O)=O` (centres unmarked) [Cyclothiazide], the “Raw Signal” value under setting [3] stood at 61194. Besides, under setting [4], the Z-score worked out at 1.224.

For `CN1CCC(=C2c3ccccc3C=Cc3ccccc32)CC1` [Cyproheptadine hydrochloride], the “Raw Signal” value under setting [3] was 61620. Moreover, the Z-score under setting [4] stood at 0.6529.
